According to the NIST ThermoML archive (doi:10.1021/je101361u):
± gives the expanded uncertainty stated by the source.

Conditions: 101.33 kPa, Liquid

ClCCCl [1,2-dichloroethane]
Conditions	mass density [kg/m3]
283.15 K	1267.39 ± 0.29
284.15 K	1265.95 ± 0.29
285.15 K	1264.5 ± 0.29
286.15 K	1263.05 ± 0.29
287.15 K	1261.6 ± 0.28
288.15 K	1260.15 ± 0.28
289.15 K	1258.7 ± 0.28
290.15 K	1257.25 ± 0.28
291.15 K	1255.8 ± 0.28
292.15 K	1254.35 ± 0.28
293.15 K	1252.89 ± 0.28
294.15 K	1251.44 ± 0.28
295.15 K	1249.98 ± 0.28
296.15 K	1248.52 ± 0.27
297.15 K	1247.07 ± 0.27
298.15 K	1245.61 ± 0.27
299.15 K	1244.15 ± 0.27
300.15 K	1242.69 ± 0.27
301.15 K	1241.22 ± 0.27
302.15 K	1239.76 ± 0.27
303.15 K	1238.29 ± 0.27
304.15 K	1236.83 ± 0.26
305.15 K	1235.36 ± 0.26
306.15 K	1233.89 ± 0.26
307.15 K	1232.42 ± 0.26
308.15 K	1230.95 ± 0.26
309.15 K	1229.47 ± 0.26
310.15 K	1228 ± 0.26
311.15 K	1226.53 ± 0.26
312.15 K	1225.05 ± 0.26
313.15 K	1223.57 ± 0.25
314.15 K	1222.09 ± 0.25
315.15 K	1220.61 ± 0.25
316.15 K	1219.13 ± 0.25
317.15 K	1217.64 ± 0.25
318.15 K	1216.16 ± 0.25
319.15 K	1214.67 ± 0.25
320.15 K	1213.18 ± 0.25
321.15 K	1211.69 ± 0.24
322.15 K	1210.2 ± 0.24
323.15 K	1208.7 ± 0.24
324.15 K	1207.21 ± 0.24
325.15 K	1205.71 ± 0.24
326.15 K	1204.21 ± 0.24
327.15 K	1202.71 ± 0.24
328.15 K	1201.21 ± 0.24
329.15 K	1199.7 ± 0.23
330.15 K	1198.19 ± 0.23
331.15 K	1196.69 ± 0.23
332.15 K	1195.18 ± 0.23
333.15 K	1193.66 ± 0.23

COCCOC [1,2-dimethoxyethane]
Conditions	mass density [kg/m3]
283.15 K	877.64 ± 0.47
284.15 K	876.56 ± 0.47
285.15 K	875.48 ± 0.47
286.15 K	874.4 ± 0.48
287.15 K	873.31 ± 0.48
288.15 K	872.23 ± 0.48
289.15 K	871.14 ± 0.48
290.15 K	870.05 ± 0.48
291.15 K	868.96 ± 0.48
292.15 K	867.87 ± 0.48
293.15 K	866.79 ± 0.49
294.15 K	865.7 ± 0.49
295.15 K	864.61 ± 0.49
296.15 K	863.51 ± 0.49
297.15 K	862.42 ± 0.49
298.15 K	861.32 ± 0.49
299.15 K	860.22 ± 0.49
300.15 K	859.12 ± 0.5
301.15 K	858.01 ± 0.5
302.15 K	856.91 ± 0.5
303.15 K	855.8 ± 0.5
304.15 K	854.69 ± 0.5
305.15 K	853.58 ± 0.5
306.15 K	852.46 ± 0.5
307.15 K	851.35 ± 0.51
308.15 K	850.24 ± 0.51
309.15 K	849.13 ± 0.51
310.15 K	848.02 ± 0.51
311.15 K	846.9 ± 0.51
312.15 K	845.79 ± 0.51
313.15 K	844.67 ± 0.51
314.15 K	843.55 ± 0.52
315.15 K	842.42 ± 0.52
316.15 K	841.29 ± 0.52
317.15 K	840.17 ± 0.52
318.15 K	839.04 ± 0.52
319.15 K	837.91 ± 0.52
320.15 K	836.77 ± 0.52
321.15 K	835.64 ± 0.53
322.15 K	834.5 ± 0.53
323.15 K	833.36 ± 0.53
324.15 K	832.22 ± 0.53
325.15 K	831.08 ± 0.53
326.15 K	829.93 ± 0.53
327.15 K	828.78 ± 0.53
328.15 K	827.63 ± 0.54
329.15 K	826.48 ± 0.54
330.15 K	825.33 ± 0.54
331.15 K	824.17 ± 0.54
332.15 K	823.02 ± 0.54
333.15 K	821.86 ± 0.54

COCCOCCOC [2,5,8-trioxanonane]
Conditions	mass density [kg/m3]
283.15 K	953.66 ± 0.38
284.15 K	952.67 ± 0.38
285.15 K	951.69 ± 0.38
286.15 K	950.7 ± 0.38
287.15 K	949.71 ± 0.38
288.15 K	948.72 ± 0.38
289.15 K	947.73 ± 0.39
290.15 K	946.74 ± 0.39
291.15 K	945.75 ± 0.39
292.15 K	944.76 ± 0.39
293.15 K	943.76 ± 0.39
294.15 K	942.79 ± 0.39
295.15 K	941.79 ± 0.39
296.15 K	940.79 ± 0.39
297.15 K	939.8 ± 0.4
298.15 K	938.8 ± 0.4
299.15 K	937.8 ± 0.4
300.15 K	936.81 ± 0.4
301.15 K	935.81 ± 0.4
302.15 K	934.82 ± 0.4
303.15 K	933.82 ± 0.4
304.15 K	932.82 ± 0.4
305.15 K	931.82 ± 0.4
306.15 K	930.82 ± 0.41
307.15 K	929.83 ± 0.41
308.15 K	928.83 ± 0.41
309.15 K	927.82 ± 0.41
310.15 K	926.83 ± 0.41
311.15 K	925.82 ± 0.41
312.15 K	924.82 ± 0.41
313.15 K	923.82 ± 0.41
314.15 K	922.81 ± 0.42
315.15 K	921.81 ± 0.42
316.15 K	920.8 ± 0.42
317.15 K	919.8 ± 0.42
318.15 K	918.79 ± 0.42
319.15 K	917.78 ± 0.42
320.15 K	916.78 ± 0.42
321.15 K	915.77 ± 0.42
322.15 K	914.75 ± 0.43
323.15 K	913.75 ± 0.43
324.15 K	912.73 ± 0.43
325.15 K	911.72 ± 0.43
326.15 K	910.7 ± 0.43
327.15 K	909.69 ± 0.43
328.15 K	908.67 ± 0.43
329.15 K	907.65 ± 0.44
330.15 K	906.63 ± 0.44
331.15 K	905.62 ± 0.44
332.15 K	904.6 ± 0.44
333.15 K	903.59 ± 0.44

CCOCCOCCOCC [diethylene glycol diethyl ether]
Conditions	mass density [kg/m3]
283.15 K	916.36 ± 1.1
284.15 K	915.39 ± 1.1
285.15 K	914.43 ± 1.1
286.15 K	913.46 ± 1.1
287.15 K	912.5 ± 1.1
288.15 K	911.53 ± 1.1
289.15 K	910.57 ± 1.1
290.15 K	909.6 ± 1.1
291.15 K	908.63 ± 1.1
292.15 K	907.67 ± 1.1
293.15 K	906.71 ± 1.1
294.15 K	905.75 ± 1.1
295.15 K	904.78 ± 1.1
296.15 K	903.81 ± 1.1
297.15 K	902.85 ± 1.1
298.15 K	901.88 ± 1.1
299.15 K	900.92 ± 1.1
300.15 K	899.95 ± 1.1
301.15 K	898.98 ± 1.1
302.15 K	898.02 ± 1.1
303.15 K	897.05 ± 1.1
304.15 K	896.08 ± 1.1
305.15 K	895.12 ± 1.1
306.15 K	894.15 ± 1.1
307.15 K	893.18 ± 1.1
308.15 K	892.21 ± 1.1
309.15 K	891.25 ± 1.1
310.15 K	890.28 ± 1.1
311.15 K	889.31 ± 1.1
312.15 K	888.34 ± 1.1
313.15 K	887.37 ± 1.1
314.15 K	886.4 ± 1.1
315.15 K	885.43 ± 1.1
316.15 K	884.46 ± 1.1
317.15 K	883.48 ± 1.1
318.15 K	882.51 ± 1.1
319.15 K	881.54 ± 1.1
320.15 K	880.57 ± 1.1
321.15 K	879.6 ± 1.1
322.15 K	878.63 ± 1.1
323.15 K	877.66 ± 1.1
324.15 K	876.7 ± 1.1
325.15 K	875.73 ± 1.1
326.15 K	874.75 ± 1.1
327.15 K	873.78 ± 1.1
328.15 K	872.81 ± 1.1
329.15 K	871.84 ± 1.1
330.15 K	870.87 ± 1.1
331.15 K	869.89 ± 1.1
332.15 K	868.92 ± 1.1
333.15 K	867.94 ± 1.1
